System: AF/AFL patients
Experiment: EURIDIS and ADONIS post hoc analysis: adverse events and ECG changes by timing of amiodarone stop
Format: in vivo, human
Conditions: for QTc-Fridericia > or = 500 msec: unit assumed
Description: Methods: In EURIDIS and ADONIS studies mentioned in the article of the New England Journal of Medicine, 357, 10, Sep.
Results: Dronedarone decreased AF/AFL recurrence compared to placebo (HR=0.64 [95% CI 0.44-0.95], P=0.022) in this subgroup. […] All the results are included in the table 1 below.
In the table above, “A” means Amiodarone, “D” means” dronedarone, “PI” means Placebo, “n” is the number of patients tested with “PI” or “D”.

[1] = A stopped more than 2 days before randomization, n = 35
[2] = A stopped within 2 days before randomization, n = 98
[3] = No amiodarone treatment before randomization, n = 680

CCCCc1oc2ccc(NS(C)(=O)=O)cc2c1C(=O)c1ccc(OCCCN(CCCC)CCCC)cc1 [Dronedarone, 2-n-Butyl-3-[4-(3-di-n-butylaminopropoxy)benzoyl]-5-methylsul phonamidobenzofuran]
Bradyarrhythmia (%) (under adverse events with drug discontinuation) [1]: 0%
Bradyarrhythmia (%) (under serious adverse events) [1]: 0%
PR-interval > or = 200 msec and increase > or = 20 msec versus baseline [1]: 22.9
Rate of Adverse Events with dronedarone discontinuation (%) [1]: 20.0%
Rate of Serious adverse events (%) [1]: 17.1%
QTc-Fridericia > or = 500 msec [1]: 14.3%
Bradyarrhythmia (%) (under adverse events with drug discontinuation) [2]: 3.1%
Bradyarrhythmia (%) (under serious adverse events) [2]: 1%
PR-interval > or = 200 msec and increase > or = 20 msec versus baseline [2]: 25.8
Rate of Adverse Events with dronedarone discontinuation (%) [2]: 8.2%
Rate of Serious adverse events (%) [2]: 15.3%
QTc-Fridericia > or = 500 msec [2]: 7.9%
Bradyarrhythmia (%) (under adverse events with drug discontinuation) [3]: 0.7%
Bradyarrhythmia (%) (under serious adverse events) [3]: 1.3%
PR-interval > or = 200 msec and increase > or = 20 msec versus baseline [3]: 28.0
Rate of Adverse Events with dronedarone discontinuation (%) [3]: 9.1%
Rate of Serious adverse events (%) [3]: 13.7%
QTc-Fridericia > or = 500 msec [3]: 4.4%
Tolerability (small patient cohort switched rapidly from A to D): good tolerability

Reference: patent publication US20120329867A1 (SANOFI, priority 2010, published 2012)
